Results from US20190000790A1, “PPAR-GAMMA ACTIVATORS AND THEIR THE[…]” (THERIAC B[…]., priority 2015, published 2019).

How the values were obtained:
CD4+ T cells = test: Treatment of CD4+ T cells from healthy volunteers and Systemic Lupus Erythematosus patients; type: cell-based, human; conditions: preliminary data, FIG. 6; CD4+ T cells stimulated with α-CD3/CD28 beads
Text: FIG. 6 illustrates BZN+PAA (HIP-002) treatment of T cells derived from healthy volunteer (HV) and Systemic Lupus Erythematous (SLE) patients.
Next, we examined if BZN+PAA can improve immune function of T lymphocytes in Systemic Lupus Erythematosus (SLE). […] Dilutions effects of the BZN+PAA drug (HIP-002) are shown. (FIG. 6A). CD4+ T cells were stimulated with α-CD3/CD28 beads for 4 (red) or 5 (black) days and cytotoxicity determined by Live/Dead staining. (FIG. 6B) CD4+ T cells were stimulated as in (FIG. 6A) for 5 days, and the surface expression of CD154 and CD25 measured by FACS analysis. (FIG. 6C) CD4+ T cells were stimulated as in (FIG. 6A), and proliferation measured by dilution of the CellTrace Violet dye. White bars: HV; n=2-3. Gray bars: SLE patients; n=3-4. * p<0.05, ** p<0.01, *** p<0.0001.

human PPARγ = test: Reporter gene bioassay of PPAR transcriptional activity (Gal4-hPPARγ / UAStkLuc luciferase in 293 cells); type: cell-based; conditions: each compound alone, 16 h, FIGS. 1A and B
Procedure: FIG. 1A, 1B illustrate a transcriptional activation of PPARγ by BNZ and PAA. Luciferase assay was performed in 293 cells transfected with Gal4-hPPARγ and UAStkLuc reporter construct and treated for 16 h with respective compounds. Data are expressed as fold change ±SEM compared to untreated cells set at 1.0.*, P<0.05; **, P<0.001.
FIG. 1C illustrates the additive effect of SB and PAA on transcriptional activity of PPARγ. Luciferase assay was performed in 293 cells transfected with Gal4-hPPARγ and UAStkLuc reporter construct and treated 10 mM of each compound for 16 h. Data are expressed as fold change ±SEM compared to untreated cells set at 1.0.*, P<0.001.
Human embryonic kidney 293 cells were seeded in DMEM supplemented with 5% charcoal dextran-treated FBS and transfected with Gal4 DBD fusion of PPAR isoforms and UAStkLuc reporter as described (12). Cells were then treated for 16 hrs and harvested for luciferase activity. Luciferase values were normalized for transfection efficiency to β-galactosidase activity and expressed as relative fold response compared to untreated cells. Data are derived from at least four independent experiments performed in triplicates. […]

O=C([O-])c1ccccc1.[Na+] [BNZ, benzoate]
effect on growth and survival of T lymphocytes (CD4+ T cells): beneficial effect on the growth and survival of these cells | PPARγ activity (transcriptional activation, luciferase) (human PPARγ): significantly potent in increasing PPARγ activity
